Test results from US12472231B2 (priority 2020, dated 2025).
In brackets after ≈: the same amount, converted by molar mass. Where a SMILES comes first, the peptide text is derived from it.

What was measured:
SARS-CoV-2 [1] = test system: SARS-CoV-2
MERS-CoV [2] = assay type: binding
MERS-CoV [3] = test system: MERS-CoV
SARS-CoV [4] = assay type: binding
H1N1 HA1 protein = H1N1 HA1 protein (Influenza A virus, UniProt C3W5S1)
MERS-CoV [5] = test system: MERS-CoV; remark: listed apart in the source
MERS-CoV S protein = MERS-CoV S protein (Middle East respiratory syndrome-related coronavirus, UniProt K9N5Q8)
Sequence of MERS-CoV S protein (K9N5Q8 18-1353 limits assumed): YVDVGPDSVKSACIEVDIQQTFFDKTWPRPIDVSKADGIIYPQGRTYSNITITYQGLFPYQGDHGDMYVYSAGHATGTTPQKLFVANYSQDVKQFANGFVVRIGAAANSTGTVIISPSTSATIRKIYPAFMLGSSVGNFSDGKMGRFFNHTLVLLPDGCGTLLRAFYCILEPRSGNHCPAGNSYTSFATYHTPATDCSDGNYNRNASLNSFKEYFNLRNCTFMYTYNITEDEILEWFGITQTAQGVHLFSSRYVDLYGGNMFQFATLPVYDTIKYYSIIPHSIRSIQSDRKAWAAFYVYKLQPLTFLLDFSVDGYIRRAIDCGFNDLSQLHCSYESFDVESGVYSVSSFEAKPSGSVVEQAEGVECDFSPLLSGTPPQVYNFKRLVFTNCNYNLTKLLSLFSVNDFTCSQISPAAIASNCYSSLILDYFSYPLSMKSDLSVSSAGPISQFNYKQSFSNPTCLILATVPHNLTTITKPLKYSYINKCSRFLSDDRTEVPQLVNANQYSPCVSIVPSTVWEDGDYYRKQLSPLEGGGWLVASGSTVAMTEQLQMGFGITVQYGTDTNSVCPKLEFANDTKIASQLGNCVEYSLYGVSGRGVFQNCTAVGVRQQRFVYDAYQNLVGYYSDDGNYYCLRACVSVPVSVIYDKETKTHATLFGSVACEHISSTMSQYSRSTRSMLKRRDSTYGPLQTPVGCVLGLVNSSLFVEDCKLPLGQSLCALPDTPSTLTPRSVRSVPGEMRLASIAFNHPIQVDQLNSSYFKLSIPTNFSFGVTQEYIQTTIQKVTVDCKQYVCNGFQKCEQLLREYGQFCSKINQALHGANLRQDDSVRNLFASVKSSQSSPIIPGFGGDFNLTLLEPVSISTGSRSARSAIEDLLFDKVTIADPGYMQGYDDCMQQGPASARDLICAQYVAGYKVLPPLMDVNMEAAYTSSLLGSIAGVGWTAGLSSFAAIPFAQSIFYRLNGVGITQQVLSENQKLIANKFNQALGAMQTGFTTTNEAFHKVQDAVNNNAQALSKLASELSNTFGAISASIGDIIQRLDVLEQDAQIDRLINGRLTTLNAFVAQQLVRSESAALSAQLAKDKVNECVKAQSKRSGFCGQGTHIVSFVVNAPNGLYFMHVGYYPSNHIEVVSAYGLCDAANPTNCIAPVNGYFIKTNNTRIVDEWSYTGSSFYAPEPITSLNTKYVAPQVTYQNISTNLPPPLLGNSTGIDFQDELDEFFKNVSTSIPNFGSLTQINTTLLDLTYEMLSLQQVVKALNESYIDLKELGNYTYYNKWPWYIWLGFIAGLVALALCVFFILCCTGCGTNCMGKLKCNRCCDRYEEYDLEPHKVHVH

A(H1N1)pdm09 virus [6] = assay type: cell-based
[7] = test system: endosomal acidification in MDCK cells; assay type: cell-based, canine
[8] = test system: A(H1N1)pdm09 virus RNP release in MDCK cells
[9] = test system: virus-host endosomal acidification; assay type: cell-based
rhinovirus [10] = assay type: binding; settings: peptide coated on ELISA plate, bound virus by RT-qPCR
A(H7N9) virus [11] = test system: A(H7N9) virus
SARS-CoV-2 [12] = test system: SARS-CoV-2; remark: listed apart in the source
A(H1N1)pdm09 virus [13] = assay type: binding
rhinovirus [14] = test system: rhinovirus
SARS-CoV-2 [15] = assay type: binding
rhinovirus [16] = test system: rhinovirus; remark: listed apart in the source
A(H7N9) virus [17] = test system: A(H7N9) virus; remark: listed apart in the source
A(H7N9) virus [18] = assay type: binding
SARS-CoV [19] = test system: SARS-CoV
A(H1N1)pdm09 virus [20] = test system: A(H1N1)pdm09 virus

Sequence of H1N1 HA1 protein (C3W5S1 18-344 limits assumed): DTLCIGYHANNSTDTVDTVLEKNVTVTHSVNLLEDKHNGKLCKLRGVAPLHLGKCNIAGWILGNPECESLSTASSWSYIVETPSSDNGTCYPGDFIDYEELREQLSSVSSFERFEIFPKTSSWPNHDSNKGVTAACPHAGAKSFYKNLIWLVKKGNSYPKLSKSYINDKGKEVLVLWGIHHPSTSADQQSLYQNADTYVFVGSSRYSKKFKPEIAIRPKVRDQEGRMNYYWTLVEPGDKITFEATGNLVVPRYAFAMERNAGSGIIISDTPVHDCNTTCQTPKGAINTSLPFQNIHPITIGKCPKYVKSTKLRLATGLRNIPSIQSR

Which results are given for `CC[C@H](C)[C@H](NC(=O)[C@H](C)NC(=O)CNC(=O)[C@@H](N)CC(N)=O)C(=O)N[C@@H](CS)C(=O)N[C@@H](Cc1c[nH]c2ccccc12)C(=O)NCC(=O)N1CCC[C@H]1C(=O)N[C@@H](CS)C(=O)N1CCC[C@H]1C(=O)N[C@H](C(=O)N[C@@H](C)C(=O)N[C@@H](Cc1ccccc1)C(=O)N[C@@H](CCCNC(=N)N)C(=O)N[C@@H](CCC(N)=O)C(=O)N[C@H](C(=O)NCC(=O)N[C@@H](CC(N)=O)C(=O)N[C@@H](CS)C(=O)NCC(=O)N[C@@H](Cc1c[nH]cn1)C(=O)N[C@@H](Cc1ccccc1)C(=O)N[C@@H](CCCCN)C(=O)N[C@H](C(=O)N[C@@H](CCCNC(=N)N)C(=O)N[C@@H](CS)C(=O)N[C@@H](CS)C(=O)N[C@@H](CCCCN)C(=O)N[C@H](C(=O)N[C@@H](CCCNC(=N)N)C(=O)O)[C@@H](C)CC)C(C)C)[C@@H](C)CC)[C@@H](C)O` [P9, reference compound]?
IC50 against parainfluenza virus 3 (parainfluenza virus 3): > 25.0 µg/mL; IC50 against SARS-CoV-2 (SARS-CoV-2 [1]): 2.4 µg/mL (≈ 0.719 µM)

Which “binding to MERS-CoV” value (MERS-CoV [2]) does the source give for `CC[C@H](C)[C@H](NC(=O)[C@H](C)NC(=O)CNC(=O)[C@@H](N)CC(N)=O)C(=O)N[C@@H](CS)C(=O)N[C@@H](Cc1c[nH]c2ccccc12)C(=O)NCC(=O)N1CCC[C@H]1C(=O)N[C@@H](CS)C(=O)N1CCC[C@H]1C(=O)N[C@H](C(=O)N[C@@H](C)C(=O)N[C@@H](Cc1ccccc1)C(=O)N[C@@H](CCCNC(=N)N)C(=O)N[C@@H](CCC(N)=O)C(=O)N[C@H](C(=O)NCC(=O)N[C@@H](CC(N)=O)C(=O)N[C@@H](CS)C(=O)NCC(=O)N[C@@H](CCCNC(=N)N)C(=O)N[C@@H](Cc1ccccc1)C(=O)N[C@@H](CCCNC(=N)N)C(=O)N[C@H](C(=O)N[C@@H](CCCNC(=N)N)C(=O)N[C@@H](CS)C(=O)N[C@@H](CS)C(=O)N[C@@H](CCCNC(=N)N)C(=O)N[C@H](C(=O)N[C@@H](CCCNC(=N)N)C(=O)O)[C@@H](C)CC)C(C)C)[C@@H](C)CC)[C@@H](C)O` [P9R] (H-NGAICWGPCPTAFRQIGNCGRFRVRCCRIR-OH) here?
Its value is “could also bind”.

What about the “inhibition of viral replication (viral RNA copies in supernatants)” value (shortened to “inhibition of viral replication”) (MERS-CoV [3]) of the same molecule?
Its value is 1000 fold.

What about the “binding to SARS-CoV” value (SARS-CoV [4]) of the same molecule?
The value was “could also bind”.

What about the “binding to viral protein H1N1 HA1” value (H1N1 HA1 protein) of the same molecule?
The value was “could also bind”.

What about the “inhibition against MERS-CoV compared with P9” value (MERS-CoV [5]) of the same molecule?
The value was “significantly stronger inhibition”.

What about the “binding to viral protein MERS-CoV S” value (MERS-CoV S protein) of the same molecule?
Its value is “could also bind”.

What about the “inhibition against A(H1N1)pdm09 virus compared with P9” value (A(H1N1)pdm09 virus [6]) of the same molecule?
Its value is “significantly stronger inhibition”.

What about the “inhibition of endosomal acidification in live cells” value [7] of the same molecule?
Its value is “could more significantly inhibit endosomal acidification”.

What about the “inhibition of viral RNP release into nuclei” value [8] of the same molecule?
Its value is “could inhibit viral RNP release into nuclei”.

And the “inhibition of virus-host endosomal acidification” value [9]?
The value was “could efficiently inhibit the virus-host endosomal acidification”.

What about the binding to rhinovirus (rhinovirus [10]) of the same molecule?
The binding to rhinovirus was “could also bind”.

What about the “inhibition against A(H7N9) virus compared with P9” value (A(H7N9) virus [11]) of the same molecule?
The value was “significantly stronger inhibition”.

And the “IC50 against parainfluenza virus 3” value (parainfluenza virus 3)?
Its value is > 25.0 µg/mL.

What about the “inhibition of viral replication” value (SARS-CoV-2 [12]) of the same molecule?
Its value is 1000 fold.

And the “binding to A(H1N1)pdm09 virus” value (A(H1N1)pdm09 virus [13])?
The value was “could efficiently bind”.

And the “IC50 against SARS-CoV-2” value (SARS-CoV-2 [1])?
Its value is 0.9 µg/mL (≈ 0.264 µM).

And the “inhibition against rhinovirus compared with P9” value (rhinovirus [14])?
Its value is “significantly stronger inhibition”.

What about the “binding to SARS-CoV-2” value (SARS-CoV-2 [15]) of the same molecule?
The value was “could efficiently bind”.

What about the “inhibition of viral replication” value (rhinovirus [16]) of the same molecule?
Its value is > 20 fold.

And the “inhibition of viral replication” value (A(H7N9) virus [17])?
The value was > 20 fold.

And the “binding to A(H7N9) virus” value (A(H7N9) virus [18])?
The value was “could also bind”.

And the “inhibition of viral replication” value (SARS-CoV [19])?
The value was 1000 fold.

What about the “inhibition of viral replication” value (A(H1N1)pdm09 virus [20]) of the same molecule?
The value was > 20 fold.

Which “inhibition of virus-host endosomal acidification” value [9] does the source give for `CO/C1=C\C(C)=C\[C@@H](C)[C@@H](O)[C@@H](C)C/C(C)=C/C=C/[C@H](OC)[C@@H]([C@@H](C)[C@@H](O)[C@H](C)[C@@]2(O)C[C@@H](O)[C@H](C)[C@@H](C(C)C)O2)OC1=O` [bafilomycin A1, reference compound] here?
The value was “could efficiently inhibit the virus-host endosomal acidification”.
